From patent US20260201008A1, “SECRETIN-DERIVED GLP1R SELECTIVE AGONISTS” (GUBRA A/S, priority 2023, published 2026)
Read-outs that look alike come from different tables or passages of the source. Numbered stars: 1 amine (or outer) side, 2 acyl side, 3 side chain; on linkers, the order of the positions; unused ones are H or OH. Square brackets hold non-standard residues; d marks the D form. Side chains are listed from the residue outwards. Peptide text beside a SMILES is read from it. * marks the point of attachment. C20 diacid = O=C(O)CCCCCCCCCCCCCCCCCCC(=O)*; γGlu = O=C(O)[C@H](CCC(=O)[*:2])N[*:1]; AEEA = NCCOCCOCC(=O)O; Aib = CC(C)(N)C(=O)O

Legend:
[1] = Fibril formation of crude library peptides (Thioflavin T); assay type: physicochemical; design: key: average ThT fluorescence emission at 480 nm (ex 450 nm), raw units; settings: Physical stability of peptides
Summary of the method: (§1)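 Values reflect mean ThT emission (ex 450, em 480 nm) over 72 h at 40° C, read every 10 min after 5 min shaking at 700 rpm, plus a single initial absorbance at 600 nm for turbidity. Peptides were at 267 μM, pH 4.0 acetate or pH 7.0 phosphate (50 mM), with 4 μM ThT.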

[2] = Turbidity of crude library peptides (absorbance at 600 nm); assay type: physicochemical; settings: Physical stability of peptides
Summary of the method: as §1

[3] = target: SCTR (Homo sapiens, UniProt P47872); assay: hSCTR potency, cAMP accumulation in CHO-K1 cells stably overexpressing hSCTR; assay type: cell-based; design: alternatively Euroscreen ES-712-AF; FAST-0161L; host or cells: CHO-K1; settings: cAMP accumulation, CHO-K1 cells overexpressing hSCTR
Summary of the method: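 Potency reflects cAMP accumulation after 30 min agonist exposure at room temperature in hSCTR-expressing CHO-K1 cells, with 0.5 mM IBMX present to block phosphodiesterase. EC50 was derived by nonlinear regression.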

[4] = target: GLP1R (Homo sapiens, UniProt P43220); assay: hGLP1R potency, cAMP accumulation in CHO-K1 cells stably overexpressing hGLP1R; assay type: cell-based; design: host or cells: CHO-K1; settings: for Selectivity: SCTR EC50/GLP1R EC50 ratio; for EC50: cAMP accumulation, CHO-K1 cells overexpressing hGLP1R; for SCTR EC50/GLP1R EC50 ratio: selectivity for hGLP1R over hSCTR, cAMP accumulation in CHO-K1 cells
Summary of the method: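 Potency reflects cAMP accumulation measured by time-resolved fluorescence energy transfer after a 30 min room-temperature stimulation in IBMX-containing (0.5 mM) DPBS with casein. Purified peptides were tested in duplicate over eleven threefold dilutions, and EC50 was obtained from sigmoid concentration-response fitting.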

[5] = read-out: pEC50 hSCTR (converted)
[6] = read-out: pEC50 hGLPR1 (converted)
[7] = read-out: hSCTR pEC50 (converted)
[8] = read-out: hGLP1R pEC50 (converted)

Sequence of SCTR (P47872 23-440): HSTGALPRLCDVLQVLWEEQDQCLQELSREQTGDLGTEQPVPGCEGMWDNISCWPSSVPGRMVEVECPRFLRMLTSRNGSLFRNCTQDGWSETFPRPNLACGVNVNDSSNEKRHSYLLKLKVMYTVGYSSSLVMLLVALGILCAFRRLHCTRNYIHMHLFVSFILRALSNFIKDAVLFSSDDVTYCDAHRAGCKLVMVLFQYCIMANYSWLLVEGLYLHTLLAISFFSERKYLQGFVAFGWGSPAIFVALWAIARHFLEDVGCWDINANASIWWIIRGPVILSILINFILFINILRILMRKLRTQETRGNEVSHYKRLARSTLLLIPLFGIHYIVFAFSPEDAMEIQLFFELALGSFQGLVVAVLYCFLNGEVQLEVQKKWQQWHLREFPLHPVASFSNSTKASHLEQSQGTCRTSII
Sequence of GLP1R (P43220 24-463): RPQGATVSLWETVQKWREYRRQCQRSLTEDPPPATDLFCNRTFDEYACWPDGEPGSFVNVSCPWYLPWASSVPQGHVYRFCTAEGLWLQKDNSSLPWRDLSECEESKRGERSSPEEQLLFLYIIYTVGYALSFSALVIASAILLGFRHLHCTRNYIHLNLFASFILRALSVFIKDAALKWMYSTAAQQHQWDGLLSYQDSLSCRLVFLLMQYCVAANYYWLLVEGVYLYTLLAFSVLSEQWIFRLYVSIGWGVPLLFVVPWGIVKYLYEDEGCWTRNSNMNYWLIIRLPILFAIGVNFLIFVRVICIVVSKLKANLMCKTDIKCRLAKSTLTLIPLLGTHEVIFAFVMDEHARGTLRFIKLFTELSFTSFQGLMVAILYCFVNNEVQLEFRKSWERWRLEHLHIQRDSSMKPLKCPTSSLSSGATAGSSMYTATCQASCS

SMILES: CC(C)C[C@H](NC(=O)[C@H](Cc1ccccc1)NC(=O)[C@H](CCCNC(=N)N)NC(=O)[C@H](CCC(N)=O)NC(=O)[C@H](C)NC(=O)[C@H](C)NC(=O)[C@H](C)NC(=O)[C@H](Cc1ccccc1)NC(=O)[C@H](CCC(=O)O)NC(=O)[C@H](CCCCNC(=O)COCCOCCNC(=O)COCCOCCNC(=O)CC[C@H](NC(=O)CCCCCCCCCCCCCCCCCCC(=O)O)C(=O)O)NC(=O)[C@H](CC(C)C)NC(=O)[C@H](CCCNC(=N)N)NC(=O)[C@H](CO)NC(=O)[C@@H](NC(=O)[C@H](CC(=O)O)NC(=O)[C@H](CO)NC(=O)[C@@H](NC(=O)[C@H](Cc1ccccc1)NC(=O)[C@@H](NC(=O)CNC(=O)[C@H](CCC(=O)O)NC(=O)C(C)(C)NC(=O)[C@@H](N)Cc1c[nH]cn1)[C@@H](C)O)[C@@H](C)O)C(C)C)C(=O)N[C@@H](CCC(=O)O)C(=O)N[C@@H](Cc1c[nH]cn1)C(=O)N[C@@H](CC(C)C)C(=O)N[C@H](C(N)=O)C(C)C [compound 2] (H-H[Aib]EGTFTSDVSRLK([AEEA-AEEA-γGlu-C20 diacid])EFAAAQRFLEHLV-NH2)
- Fibril formation [1]: 89647
- Turbidity (pH 7) [2]: 0.08
- EC50 [3, 5]: 501 nM
- Selectivity [4]: 6431
- EC50 [4, 6]: 0.0794 nM

SMILES: CC[C@H](C)[C@H](NC(=O)[C@H](Cc1ccccc1)NC(=O)[C@H](CCCNC(=N)N)NC(=O)[C@H](CCC(N)=O)NC(=O)[C@H](CC(C)C)NC(=O)[C@H](C)NC(=O)[C@H](C)NC(=O)CNC(=O)[C@H](CCC(=O)O)NC(=O)[C@H](CC(C)C)NC(=O)[C@H](CC(C)C)NC(=O)[C@H](Cc1ccccc1)NC(=O)[C@H](CO)NC(=O)[C@@H](NC(=O)[C@H](CC(=O)O)NC(=O)[C@H](CO)NC(=O)[C@@H](NC(=O)[C@H](Cc1ccccc1)NC(=O)[C@@H](NC(=O)CNC(=O)[C@H](CCC(=O)O)NC(=O)C(C)(C)NC(=O)[C@@H](N)Cc1c[nH]cn1)[C@@H](C)O)[C@@H](C)O)C(C)C)C(=O)N[C@@H](CCC(N)=O)C(=O)N[C@@H](Cc1c[nH]c2ccccc12)C(=O)N[C@@H](CC(C)C)C(=O)N[C@H](C(N)=O)C(C)C [compound 177] (H-H[Aib]EGTFTSDVSFLLEGAALQRFIQWLV-NH2)
- Fibril formation [1]: 260000
- Turbidity (pH 7) [2]: 0.53
- EC50 [3, 7]: 501 nM
- EC50 [4, 8]: 0.0158 nM
- SCTR EC50/GLP1R EC50 ratio [4]: 30839

SMILES: CC(C)C[C@H](NC(=O)[C@H](Cc1ccccc1)NC(=O)[C@H](CCCNC(=N)N)NC(=O)[C@H](CCC(N)=O)NC(=O)C(C)(C)NC(=O)[C@H](C)NC(=O)[C@H](C)NC(=O)C(C)(C)NC(=O)[C@H](CCC(=O)O)NC(=O)[C@H](CCCCNC(=O)COCCOCCNC(=O)COCCOCCNC(=O)CC[C@H](NC(=O)CCCCCCCCCCCCCCCCCCC(=O)O)C(=O)O)NC(=O)[C@H](CC(C)C)NC(=O)[C@H](CCC(=O)O)NC(=O)[C@H](CO)NC(=O)[C@@H](NC(=O)[C@H](CC(=O)O)NC(=O)[C@H](CO)NC(=O)[C@@H](NC(=O)[C@H](Cc1ccccc1)NC(=O)[C@@H](NC(=O)CNC(=O)[C@H](CCC(=O)O)NC(=O)C(C)(C)NC(=O)[C@@H](N)Cc1c[nH]cn1)[C@@H](C)O)[C@@H](C)O)C(C)C)C(=O)N[C@@H](CCC(=O)O)C(=O)N[C@@H](Cc1c[nH]cn1)C(=O)N[C@@H](CC(C)C)C(=O)N[C@H](C(N)=O)C(C)C [compound 7] (H-H[Aib]EGTFTSDVSELK([AEEA-AEEA-γGlu-C20 diacid])E[Aib]AA[Aib]QRFLEHLV-NH2)
- Fibril formation [1]: 10801
- Turbidity (pH 7) [2]: 0.08
- EC50 [3, 5]: 1000 nM
- Selectivity [4]: 18030
- EC50 [4, 6]: 0.0631 nM

SMILES: CC(C)C[C@H](NC(=O)[C@H](Cc1ccccc1)NC(=O)[C@H](CCCNC(=N)N)NC(=O)[C@H](CCC(N)=O)NC(=O)[C@H](CC(C)C)NC(=O)C(C)(C)NC(=O)[C@H](C)NC(=O)[C@H](CCC(=O)O)NC(=O)[C@H](CCC(=O)O)NC(=O)[C@H](CCCCNC(=O)COCCOCCNC(=O)COCCOCCNC(=O)CC[C@H](NC(=O)CCCCCCCCCCCCCCCCCCC(=O)O)C(=O)O)NC(=O)[C@H](CC(C)C)NC(=O)[C@H](Cc1ccc(O)cc1)NC(=O)[C@H](CO)NC(=O)[C@@H](NC(=O)[C@H](CC(=O)O)NC(=O)[C@H](CO)NC(=O)[C@@H](NC(=O)[C@H](Cc1ccccc1)NC(=O)[C@@H](NC(=O)CNC(=O)[C@H](CC(C)C)NC(=O)C(C)(C)NC(=O)[C@@H](N)Cc1c[nH]cn1)[C@@H](C)O)[C@@H](C)O)C(C)C)C(=O)N[C@@H](CCC(=O)O)C(=O)N[C@@H](Cc1c[nH]cn1)C(=O)N[C@@H](CC(C)C)C(=O)N[C@H](C(N)=O)C(C)C [compound 170] (H-H[Aib]LGTFTSDVSYLK([AEEA-AEEA-γGlu-C20 diacid])EEA[Aib]LQRFLEHLV-NH2)
- Fibril formation [1]: 3337
- Turbidity (pH 7) [2]: 0.08
- EC50 [3, 7]: 25100 nM
- EC50 [4, 8]: 0.0251 nM
- SCTR EC50/GLP1R EC50 ratio [4]: 873474

SMILES: CC(C)C[C@H](NC(=O)[C@H](Cc1ccccc1)NC(=O)[C@H](CCCNC(=N)N)NC(=O)[C@H](CCC(N)=O)NC(=O)[C@H](C)NC(=O)[C@H](C)NC(=O)[C@H](C)NC(=O)[C@H](CCC(=O)O)NC(=O)[C@H](CCC(=O)O)NC(=O)[C@H](CCCCNC(=O)COCCOCCNC(=O)COCCOCCNC(=O)CC[C@H](NC(=O)CCCCCCCCCCCCCCCCCCC(=O)O)C(=O)O)NC(=O)[C@H](CC(C)C)NC(=O)[C@@H](NC(=O)[C@H](CO)NC(=O)[C@@H](NC(=O)[C@H](CC(=O)O)NC(=O)[C@H](CO)NC(=O)[C@@H](NC(=O)[C@H](Cc1ccccc1)NC(=O)[C@@H](NC(=O)CNC(=O)[C@H](CCC(=O)O)NC(=O)C(C)(C)NC(=O)[C@@H](N)Cc1c[nH]cn1)[C@@H](C)O)[C@@H](C)O)C(C)C)C(C)C)C(=O)N[C@@H](CCC(=O)O)C(=O)N[C@@H](Cc1c[nH]cn1)C(=O)N[C@@H](CC(C)C)C(=O)N[C@H](C(N)=O)C(C)C [compound 28] (H-H[Aib]EGTFTSDVSVLK([AEEA-AEEA-γGlu-C20 diacid])EEAAAQRFLEHLV-NH2)
- Fibril formation [1]: 7910
- Turbidity (pH 7) [2]: 0.09
- EC50 [3, 5]: 1260 nM
- Selectivity [4]: 55501
- EC50 [4, 6]: 0.02 nM

SMILES: CC(C)C[C@H](NC(=O)[C@H](Cc1ccccc1)NC(=O)[C@H](CCCNC(=N)N)NC(=O)[C@H](CCC(N)=O)NC(=O)[C@H](CC(C)C)NC(=O)C(C)(C)NC(=O)[C@H](C)NC(=O)[C@H](CCC(=O)O)NC(=O)[C@H](CCC(=O)O)NC(=O)[C@H](CCCCNC(=O)COCCOCCNC(=O)COCCOCCNC(=O)CC[C@H](NC(=O)CCCCCCCCCCCCCCCCCCC(=O)O)C(=O)O)NC(=O)[C@H](CC(C)C)NC(=O)[C@@H]1CCCN1C(=O)[C@H](CO)NC(=O)[C@@H](NC(=O)[C@H](CC(=O)O)NC(=O)[C@H](CO)NC(=O)[C@@H](NC(=O)[C@H](Cc1ccccc1)NC(=O)[C@@H](NC(=O)CNC(=O)[C@H](CCC(=O)O)NC(=O)C(C)(C)NC(=O)[C@@H](N)Cc1c[nH]cn1)[C@@H](C)O)[C@@H](C)O)C(C)C)C(=O)N[C@@H](CCC(=O)O)C(=O)N[C@@H](Cc1c[nH]cn1)C(=O)N[C@@H](CC(C)C)C(=O)N[C@H](C(N)=O)C(C)C [compound 140] (H-H[Aib]EGTFTSDVSPLK([AEEA-AEEA-γGlu-C20 diacid])EEA[Aib]LQRFLEHLV-NH2)
- Fibril formation [1]: 2733
- Turbidity (pH 7) [2]: 0.08
- EC50 [3, 7]: 20000 nM
- EC50 [4, 8]: 1.26 nM
- SCTR EC50/GLP1R EC50 ratio [4]: 14381

SMILES: CC[C@H](C)[C@H](NC(=O)[C@H](Cc1ccccc1)NC(=O)[C@H](CCCNC(=N)N)NC(=O)[C@H](CCC(N)=O)NC(=O)[C@H](CC(C)C)NC(=O)[C@H](C)NC(=O)[C@H](C)NC(=O)CNC(=O)[C@H](CCC(=O)O)NC(=O)[C@H](CC(C)C)NC(=O)[C@H](CC(C)C)NC(=O)[C@H](CCC(=O)O)NC(=O)[C@H](CO)NC(=O)[C@@H](NC(=O)[C@H](CC(=O)O)NC(=O)[C@H](CO)NC(=O)[C@@H](NC(=O)[C@H](Cc1ccccc1)NC(=O)[C@@H](NC(=O)CNC(=O)[C@H](CCC(=O)O)NC(=O)C(C)(C)NC(=O)[C@@H](N)Cc1c[nH]cn1)[C@@H](C)O)[C@@H](C)O)[C@@H](C)CC)C(=O)N[C@@H](CCC(N)=O)C(=O)N[C@@H](Cc1c[nH]c2ccccc12)C(=O)N[C@@H](CC(C)C)C(=O)N[C@H](C(N)=O)C(C)C [compound 119] (H-H[Aib]EGTFTSDISELLEGAALQRFIQWLV-NH2)
- Fibril formation [1]: 13897
- Turbidity (pH 7) [2]: 0.12
- EC50 [3, 7]: 50.1 nM
- EC50 [4, 8]: 0.0251 nM
- SCTR EC50/GLP1R EC50 ratio [4]: 2127
